Laboratory results as given in paper PMC2846716 (Journal of medicinal chemistry, 2010).
Where a SMILES comes first, the peptide text is derived from it. [ ]: non-standard residue; d: D form. The star is where a group is joined. NMeW = CN[C@@H](Cc1c[nH]c2ccccc12)C(=O)O; Palmitoyl = CCCCCCCCCCCCCCCC(=O)*

How the values were obtained:
[1] = Stability in 25% rat serum; format: in vitro ADME; conditions: 25% rat serum at 37° C, 0.1M Tris-HCl pH 7.5, 20 μM peptide, up to 8 hours, HPLC
CF-1 mice [2] = test: 6 Hz corneal stimulation seizure test; format: in vivo, mouse; conditions: 4 mg/kg i.p.; for Primary Screening at 4 mg/kg (6 Hz, 32 mA), mice protected / tested, 15 min: challenged 15 min after administration; for Primary Screening at 4 mg/kg (6 Hz, 32 mA), mice protected / tested, 30 min: challenged 30 min after administration; for Primary Screening at 4 mg/kg (6 Hz, 32 mA), mice protected / tested, 60 min: challenged 60 min after administration; for Primary Screening at 4 mg/kg (6 Hz, 32 mA), mice protected / tested, 120 min: challenged 120 min after administration; for Primary Screening at 4 mg/kg (6 Hz, 32 mA), mice protected / tested, 240 min: challenged 240 min after administration
[3] = in vitro stability in rat serum; ref [5], [7]; cited from earlier work
CF-1 mice [4] = conditions: after i.p. administration; ref [5]; cited from earlier work
hGalR2 = molecular target: T1, hGalR2 (Homo sapiens, UniProt O43603); format: binding; conditions: relative to [N-Me, des-Sar]Gal-B2
T1 sequence (O43603 1-387): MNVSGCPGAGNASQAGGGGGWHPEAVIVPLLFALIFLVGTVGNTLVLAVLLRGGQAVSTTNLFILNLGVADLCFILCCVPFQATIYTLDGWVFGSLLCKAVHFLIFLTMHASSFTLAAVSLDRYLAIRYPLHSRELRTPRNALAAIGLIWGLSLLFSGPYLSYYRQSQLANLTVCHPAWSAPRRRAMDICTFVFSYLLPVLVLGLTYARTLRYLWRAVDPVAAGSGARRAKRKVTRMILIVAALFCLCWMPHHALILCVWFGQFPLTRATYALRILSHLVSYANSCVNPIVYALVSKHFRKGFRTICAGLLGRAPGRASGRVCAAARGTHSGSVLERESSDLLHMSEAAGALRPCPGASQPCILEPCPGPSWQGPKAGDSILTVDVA

[5] = LogD by HPLC capacity factor; format: physicochemical; conditions: RP-HPLC, Vydac diphenyl column (capacity factor k')
GalR3 = conditions: binding; ref [18]; cited from earlier work

Compound	half-life in 25% rat serum [1] [h]	Primary Screening at 4 mg/kg (6 Hz, 32 mA), mice protected / tested, 15 min (CF-1 mice [2])	Primary Screening at 4 mg/kg (6 Hz, 32 mA), mice protected / tested, 30 min (CF-1 mice [2])	Primary Screening at 4 mg/kg (6 Hz, 32 mA), mice protected / tested, 60 min (CF-1 mice [2])	Primary Screening at 4 mg/kg (6 Hz, 32 mA), mice protected / tested, 120 min (CF-1 mice [2])	Primary Screening at 4 mg/kg (6 Hz, 32 mA), mice protected / tested, 240 min (CF-1 mice [2])	serum half-life in rat serum [3] [h]	ED50, 6 Hz corneal stimulation mouse model (CF-1 mice [4]) [mg/kg]	reduction of binding toward GalR2 on removal of N-terminal methyl group (hGalR2) [fold]	chromatographic logD [5]	preference towards GalR2 above GalR3 (GalR3) [fold]
CCCCCCCCCCCCCCCC(=O)NCCCC[C@H](NC(=O)[C@H](CCCCN)NC(=O)[C@H](CCCCN)NC(=O)[C@@H]1CCCN1C(=O)CNC(=O)[C@H](CC(C)C)NC(=O)[C@H](CC(C)C)NC(=O)[C@H](Cc1ccc(O)cc1)NC(=O)CNC(=O)[C@H](C)NC(=O)[C@H](CO)NC(=O)[C@H](CC(N)=O)NC(=O)[C@H](CC(C)C)NC(=O)[C@@H](NC(=O)[C@H](Cc1c[nH]c2ccccc12)NC(=O)CNC)[C@@H](C)O)C(=O)N[C@@H](CCCCN)C(N)=O [Gal-B2]	9.4	3/4	4/4	4/4	4/4	0/4	9.4	0.8	–	–	–
CCCCCCCCCCCCCCCC(=O)NCCCC[C@H](NC(=O)[C@H](CCCCN)NC(=O)[C@H](CCCCN)NC(=O)[C@@H]1CCCN1C(=O)CNC(=O)[C@H](CC(C)C)NC(=O)[C@H](CC(C)C)NC(=O)[C@H](Cc1ccc(O)cc1)NC(=O)CNC(=O)[C@H](C)NC(=O)[C@H](CO)NC(=O)[C@H](CC(N)=O)NC(=O)[C@H](CC(C)C)NC(=O)[C@@H](NC(=O)[C@@H](N)Cc1c[nH]c2ccccc12)[C@@H](C)O)C(=O)N[C@@H](CCCCN)C(N)=O [Gal-B5] (H-WTLNSAGYLLGPKKK(Palmitoyl)K-NH2)	–	2/4	1/4	2/4	2/4	0/3	–	–	2	1.22 ± 0.02	–
CCCCCCCCCCCCCCCC(=O)NCCCC[C@H](NC(=O)[C@H](CCCCN)NC(=O)[C@H](CCCCN)NC(=O)[C@@H]1CCCN1C(=O)CNC(=O)[C@H](CC(C)C)NC(=O)[C@H](CC(C)C)NC(=O)[C@H](Cc1ccc(O)cc1)NC(=O)CNC(=O)[C@H](C)NC(=O)[C@H](CO)NC(=O)[C@H](CC(N)=O)NC(=O)[C@H](CC(C)C)NC(=O)[C@@H](NC(=O)[C@H](Cc1c[nH]c2ccccc12)NC(C)=O)[C@@H](C)O)C(=O)N[C@@H](CCCCN)C(N)=O [[N-Ac, des-Sar]Gal-B2] (Ac-WTLNSAGYLLGPKKK(Palmitoyl)K-NH2)	–	–	–	–	–	–	–	–	–	1.28 ± 0.02	–
CCCCCCCCCCCCCCCC(=O)NCCCC[C@H](NC(=O)[C@H](CCCCN)NC(=O)[C@H](CCCCN)NC(=O)[C@@H]1CCCN1C(=O)CNC(=O)[C@H](CC(C)C)NC(=O)[C@H](CC(C)C)NC(=O)[C@H](Cc1ccc(O)cc1)NC(=O)CNC(=O)[C@H](C)NC(=O)[C@H](CO)NC(=O)[C@H](CC(N)=O)NC(=O)[C@H](CC(C)C)NC(=O)[C@@H](NC(=O)[C@H](Cc1c[nH]c2ccccc12)NC)[C@@H](C)O)C(=O)N[C@@H](CCCCN)C(N)=O [[N-Me, des-Sar]Gal-B2] (H-[NMeW]TLNSAGYLLGPKKK(Palmitoyl)K-NH2)	–	0/4	3/4	3/4	1/4	0/3	–	–	–	1.29 ± 0.01	–
CCCCCCCCCCCCCCCC(=O)NCCCC[C@H](NC(=O)[C@H](CCCCN)NC(=O)[C@H](CCCCN)NC(=O)[C@@H]1CCCN1C(=O)CNC(=O)[C@H](CC(C)C)NC(=O)[C@H](CC(C)C)NC(=O)[C@H](Cc1ccc(O)cc1)NC(=O)CNC(=O)[C@H](C)NC(=O)[C@H](CO)NC(=O)[C@H](CC(N)=O)NC(=O)[C@H](CC(C)C)NC(=O)[C@@H](NC(=O)[C@H](Cc1c[nH]c2ccccc12)NC(=O)[C@H](C)N)[C@@H](C)O)C(=O)N[C@@H](CCCCN)C(N)=O [[Sar1Ala]Gal-B2] (H-AWTLNSAGYLLGPKKK(Palmitoyl)K-NH2)	–	4/4	4/4	4/4	1/4	0/4	–	–	–	1.28 ± 0.01	–
CCCCCCCCCCCCCCCC(=O)NCCCC[C@H](NC(=O)[C@H](CCCCN)NC(=O)[C@H](CCCCN)NC(=O)[C@@H]1CCCN1C(=O)CNC(=O)[C@H](CC(C)C)NC(=O)[C@H](CC(C)C)NC(=O)[C@H](Cc1ccc(O)cc1)NC(=O)CNC(=O)[C@H](C)NC(=O)[C@H](CO)NC(=O)[C@H](CC(N)=O)NC(=O)[C@H](CC(C)C)NC(=O)[C@@H](NC(=O)[C@H](Cc1c[nH]c2ccccc12)NC(=O)CN)[C@@H](C)O)C(=O)N[C@@H](CCCCN)C(N)=O [[Sar1Gly]Gal-B2]	–	1/4	3/4	3/4	0/4	0/3	–	–	–	1.3 ± 0.04	–
WTLNSAGYLL-CONH2 [Gal(2-11)]	–	–	–	–	–	–	–	–	–	–	12
